# Results from patent publication US20080280886A1, “SUBSTITUTED UREAS” (AUSPEX PHARMACEUTICALS, INC., priority 2007, published 2008).
# What was measured:
# [1] = system: DOI-induced head twitches; settings: rodent; Vanover et al. 2006; cited from earlier work
# [2] = system: hyperactivity induced by NMDA receptor antagonist MK-801; settings: Vanover et al. 2006; cited from earlier work
# dopamine release = settings: Li et al. 2005; cited from earlier work
# [3] = In vitro liver microsomal stability assay; format: in vitro ADME; settings: 1 mg per mL liver microsome protein, NADPH-generating system, 5 microgram per mL compound, 37° C., 0-60 min, LC/MS/MS
# Method: Liver microsomal stability assays are conducted at 1 mg per mL liver microsome protein with an NADPH-generating system in 2% NaHCO3 (2.2 mM NADPH, 25.6 mM glucose 6-phosphate, 6 units per mL glucose 6-phosphate dehydrogenase and 3.3 mM MgCl2). Test compounds are prepared as solutions in 20% acetonitrile-water and added to the assay mixture (final assay concentration 5 microgram per mL) and incubated at 37° C. Final concentration of acetonitrile in the assay should be <1%. Aliquots (50 μL) are taken out at times 0, 15, 30, 45, and 60 min, and diluted with ice cold acetonitrile (200 μL) to stop the reactions. Samples are centrifuged at 12,000 RPM for 10 min to precipitate proteins. Supernatants are transferred to microcentrifuge tubes and stored for LC/MS/MS analysis of the degradation half-life of the test compounds.
Structure (SMILES),DOI-induced head twitches [1],hyperactivity induced by MK-801 (dozocilpine) [2],dopamine release when combined with haloperidol (dopamine release),increase in degradation half-life as compared to the non-isotopically enriched drug (Pimavanserin) [3]
"CC(C)COc1ccc(CNC(=O)N(Cc2ccc(F)cc2)C2CCN(C)CC2)cc1 [Pimavanserin, 1-(4-fluoro-benzyl)-3-(4-isobutoxy-benzyl)-1-(1-methyl-piperidin-4-yl)-urea]",reduce,attenuate hyperactivity,potentiate dopamine release,–
"[2H]C([2H])(NC(=O)N(C1CCN(C([2H])([2H])[2H])CC1)C([2H])([2H])c1ccc(F)cc1)c1ccc(OC([2H])([2H])C(C)C)cc1 [Example 3, d9-1-(4-Fluorobenzyl)-3-(4-isobutoxybenzyl)-1-(1-methylpiperidin-4-yl)urea hemi-tartrate]",–,–,–,17%
